Experimental data reported in patent US12215092B2, “Pleiotropic pathway modifier compounds and method of treating diseases” (PPM BIOPHARMA LLC, priority 2023, dated 2025).
Entries after “also recorded” stand apart in the source; their conditions may differ.

Legend:
[1] = biological target: c-MYC (Homo sapiens, UniProt P01106); assay: Automatic Western blot (Simple Western), targeted protein degradation: c-MYC; format: cell-based; settings: for c-MYC in H929 cells (targeted protein degradation / expression): H929 human myeloma cells
c-MYC, sequence (P01106 whole entry): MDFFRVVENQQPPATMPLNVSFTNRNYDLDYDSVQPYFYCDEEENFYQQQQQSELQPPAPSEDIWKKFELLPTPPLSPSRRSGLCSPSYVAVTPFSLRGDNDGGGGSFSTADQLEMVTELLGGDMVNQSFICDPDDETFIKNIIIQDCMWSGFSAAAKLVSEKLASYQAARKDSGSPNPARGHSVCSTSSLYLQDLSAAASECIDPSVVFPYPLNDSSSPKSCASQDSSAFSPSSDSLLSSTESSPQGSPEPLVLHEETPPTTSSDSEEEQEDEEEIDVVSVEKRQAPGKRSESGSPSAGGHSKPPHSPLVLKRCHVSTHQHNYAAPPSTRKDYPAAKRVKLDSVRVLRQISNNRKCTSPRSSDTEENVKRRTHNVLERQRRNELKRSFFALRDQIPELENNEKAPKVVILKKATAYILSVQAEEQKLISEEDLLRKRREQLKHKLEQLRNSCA
Description: (§1) Targeted protein degradation in test samples were determined using the automated capillary-based nanoproteomic immunoassay Simple Western System (Protein Simple). Cultured cells were washed with cold PBS once and lysed in cold RIPA buffer supplemented with protease and phosphatase inhibitors. The solutions were then incubated at 4° C. for 30 minutes with gentle agitation to fully lyse cells. Each test sample was diluted at 0.4 mg/ml and mixed with 5× reducing buffer with fluorescent molecular weight (MW) standards. Afterwards the samples were heated to 95° C. for 5 minutes, and 5 μL samples were loaded into each capillary tube. Proteins were passed and separated through stacking and separation matrices for 30 minutes at 250 V. Proteins were then immobilized to capillary walls using optimal photoactivated capture chemistry. Following proteins immobilization, capillaries were flushed with a wash buffer and incubated with a blocking reagent for 6 min. Each target protein was probed with a specific primary antibody (diluted in blocking buffer and incubated for 38 min) and a horseradish peroxidase (HRP)-conjugated secondary antibody (ready to use solutions, incubated for 23 min). A mixture of luminol and peroxide was added following manufacturer's protocol. The resulting chemiluminescent signal was captured by a CCD camera, and signal intensities were analyzed using Compass Software (Protein Simple).
(§2) 1H929 or Jurkat cells were treated with DMSO, the positive control pomalidomide (an FDA-approved immunomodulatory agent) or the selected test compound (compound 4) at indicated concentrations (0.001-10 μM) for 24 hours. […] Ikaros and other proteins (Table 1),

[2] = biological target: CRBN (Homo sapiens, UniProt Q96SW2); assay: Automatic Western blot (Simple Western), targeted protein degradation: CRBN; format: cell-based; settings: 0.001-10 μM, 24 hours
CRBN, sequence (Q96SW2 whole entry): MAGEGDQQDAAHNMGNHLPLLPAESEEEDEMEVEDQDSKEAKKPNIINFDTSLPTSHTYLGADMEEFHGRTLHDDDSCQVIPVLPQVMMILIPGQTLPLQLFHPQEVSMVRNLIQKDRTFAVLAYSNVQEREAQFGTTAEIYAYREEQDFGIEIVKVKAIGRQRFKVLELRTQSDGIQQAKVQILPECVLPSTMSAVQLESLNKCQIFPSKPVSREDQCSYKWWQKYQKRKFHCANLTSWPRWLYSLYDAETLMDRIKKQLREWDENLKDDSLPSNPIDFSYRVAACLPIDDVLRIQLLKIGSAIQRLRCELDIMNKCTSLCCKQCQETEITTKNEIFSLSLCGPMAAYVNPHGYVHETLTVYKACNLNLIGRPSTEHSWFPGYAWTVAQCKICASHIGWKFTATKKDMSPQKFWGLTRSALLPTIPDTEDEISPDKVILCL
Description: (§3) Targeted protein degradation in test samples were determined using the automated capillary-based nanoproteomic immunoassay Simple Western System (Protein Simple). Cultured cells were washed with cold PBS once and lysed in cold RIPA buffer supplemented with protease and phosphatase inhibitors. The solutions were then incubated at 4° C. for 30 minutes with gentle agitation to fully lyse cells. Each test sample was diluted at 0.4 mg/ml and mixed with 5× reducing buffer with fluorescent molecular weight (MW) standards. Afterwards the samples were heated to 95° C. for 5 minutes, and 5 μL samples were loaded into each capillary tube. Proteins were passed and separated through stacking and separation matrices for 30 minutes at 250 V. Proteins were then immobilized to capillary walls using optimal photoactivated capture chemistry. Following proteins immobilization, capillaries were flushed with a wash buffer and incubated with a blocking reagent for 6 min. Each target protein was probed with a specific primary antibody (diluted in blocking buffer and incubated for 38 min) and a horseradish peroxidase (HRP)-conjugated secondary antibody (ready to use solutions, incubated for 23 min). […] The resulting chemiluminescent signal was captured by a CCD camera, and signal intensities were analyzed using Compass Software (Protein Simple). […]

[3] = biological target: HDAC2 (Homo sapiens, UniProt Q92769); assay: Automatic Western blot (Simple Western), targeted protein degradation: HDAC2; format: cell-based; settings: 0.001-10 μM, 24 hours
HDAC2, sequence (Q92769 whole entry): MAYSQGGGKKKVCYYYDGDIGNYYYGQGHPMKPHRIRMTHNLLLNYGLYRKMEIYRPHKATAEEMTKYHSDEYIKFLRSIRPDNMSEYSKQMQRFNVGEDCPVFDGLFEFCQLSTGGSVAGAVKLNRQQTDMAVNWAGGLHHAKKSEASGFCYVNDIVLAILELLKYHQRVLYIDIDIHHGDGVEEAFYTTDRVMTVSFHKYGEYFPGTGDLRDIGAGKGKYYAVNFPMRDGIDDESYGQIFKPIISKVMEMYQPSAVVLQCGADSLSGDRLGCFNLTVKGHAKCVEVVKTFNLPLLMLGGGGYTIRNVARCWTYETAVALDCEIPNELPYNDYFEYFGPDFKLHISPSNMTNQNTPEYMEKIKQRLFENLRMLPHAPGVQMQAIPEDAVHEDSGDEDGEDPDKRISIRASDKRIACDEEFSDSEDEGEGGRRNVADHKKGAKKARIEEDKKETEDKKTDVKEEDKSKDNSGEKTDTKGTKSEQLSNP
Description: as §1, §2

[4] = test system: target protein; assay: Targeted protein degradation in H929 and Jurkat cells (overall statement); format: cell-based; settings: H929 human multiple myeloma cells and Jurkat human leukemia cells, concentration dependent
Description: as §3

[5] = test system: HDAC; assay: In situ HDAC activity fluorometric assay in cancer cells; format: cell-based, human; settings: 24 h treatment, concentration dependent (FIG. 8)
Description: In Situ HDAC Activity Fluorometric Kit was purchased from Abcam and performed according to the manufacturer instructions. The cells (20,000) were seeded in a black walled 96-well plate and let to adhere overnight, then treated with DMSO or PPM compounds at indicated concentrations for 24 hrs. The media was then replaced with an HDAC substrate (acetylated peptide) dissolved in media and cells incubated for 3 hrs under cell culture conditions, followed by addition of the developer for 30 min to stop the reaction. The fluorescence was measured at Ex/Em=368/442 nm.

[6] = test system: LPS induced PBMC; assay: Luminex-based multiplex cytokine assay, LPS induced PBMC; format: cell-based, human; settings: concentration-dependent (FIG. 6)
[7] = test system: SEB induced PBMC; assay: Luminex-based multiplex cytokine assay, SEB induced PBMC; format: cell-based, human; settings: concentration-dependent (FIG. 7)
[8] = test system: Poly (I:C) induced PBMC; assay: Luminex-based multiplex cytokine assay, Poly (I:C) induced PBMC; format: cell-based, human; settings: concentration-dependent (FIG. 5)
[9] = biological target: Eos (Homo sapiens, UniProt Q9H2S9); assay: Automatic Western blot (Simple Western), targeted protein degradation: Eos; format: cell-based; settings: 0.001-10 μM, 24 hours
Eos, sequence (Q9H2S9 whole entry): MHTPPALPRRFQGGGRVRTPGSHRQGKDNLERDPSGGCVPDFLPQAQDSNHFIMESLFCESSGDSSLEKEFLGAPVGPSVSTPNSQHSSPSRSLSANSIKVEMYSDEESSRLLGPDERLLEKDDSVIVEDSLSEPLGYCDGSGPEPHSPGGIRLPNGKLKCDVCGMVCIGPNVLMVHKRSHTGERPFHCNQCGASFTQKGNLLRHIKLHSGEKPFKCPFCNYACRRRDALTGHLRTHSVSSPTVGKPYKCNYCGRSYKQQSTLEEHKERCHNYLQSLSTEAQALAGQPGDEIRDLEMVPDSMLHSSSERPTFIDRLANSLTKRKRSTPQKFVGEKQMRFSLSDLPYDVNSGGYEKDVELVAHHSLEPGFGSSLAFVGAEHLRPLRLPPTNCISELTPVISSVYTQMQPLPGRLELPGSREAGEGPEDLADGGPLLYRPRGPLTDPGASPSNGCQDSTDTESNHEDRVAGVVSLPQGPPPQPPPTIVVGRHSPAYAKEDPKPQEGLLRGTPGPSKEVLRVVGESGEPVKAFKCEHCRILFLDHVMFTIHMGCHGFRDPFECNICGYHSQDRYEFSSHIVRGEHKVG
Description: as §3

[10] = test system: human solid tissue cancer cells; assay: Cancer cell proliferation assay (CellTiter-Glo), solid tumors; format: cell-based; settings: 3 days, concentration-dependent (FIG. 1)
Description: (§4) The cell proliferation of cancer cells was assessed using the CellTiter-Glo Luminescent Cell Viability Assay (Promega), per the manufacturer's protocol.
(§5) Briefly, in 96-well flat-bottom white-walled multiwell cell culture plates the control wells containing 100 μL/well medium without cells were used to obtain a value for background luminescence. For treatment wells, cells were seeded at 5,000 in 50 μL/well of complete RPMI-1640 medium and then mixed with 50 μL/well of the vehicle control (0.1% DMSO) or test compounds at indicated concentrations. Following cell incubation for 3 days at 37° C. in a humidified 5% CO2 incubator, the plates were equilibrated at room temperature for approximately 30 minutes. 100 μL of CellTiter-Glo® Reagent were added into each well and then contents were mixed for 2 minutes on an orbital plate shaker to induce cell lysis. After the plates were incubated at room temperature for 10 minutes, luminescent signals of each well were recorded with a Tecan M200 Plate Reader (Tecan Trading AG, Switzerland).
(§6) The following human cancer cells originated from various tissues were used to test the antiproliferative activity of PPM compounds (Table 2). […] The EC50 values for each test compounds were calculated using GraphPad Prizm. […]

[11] = test system: GAPDH; assay: Automatic Western blot (Simple Western): GAPDH (sample loading control); format: cell-based, human; settings: 0.001-10 μM, 24 hours
Description: as §1, §2

[12] = biological target: Ikaros (Homo sapiens, UniProt Q13422); assay: Automatic Western blot (Simple Western), targeted protein degradation: Ikaros; format: cell-based; settings: 0.001-10 μM, 24 hours
Ikaros, sequence (Q13422 whole entry): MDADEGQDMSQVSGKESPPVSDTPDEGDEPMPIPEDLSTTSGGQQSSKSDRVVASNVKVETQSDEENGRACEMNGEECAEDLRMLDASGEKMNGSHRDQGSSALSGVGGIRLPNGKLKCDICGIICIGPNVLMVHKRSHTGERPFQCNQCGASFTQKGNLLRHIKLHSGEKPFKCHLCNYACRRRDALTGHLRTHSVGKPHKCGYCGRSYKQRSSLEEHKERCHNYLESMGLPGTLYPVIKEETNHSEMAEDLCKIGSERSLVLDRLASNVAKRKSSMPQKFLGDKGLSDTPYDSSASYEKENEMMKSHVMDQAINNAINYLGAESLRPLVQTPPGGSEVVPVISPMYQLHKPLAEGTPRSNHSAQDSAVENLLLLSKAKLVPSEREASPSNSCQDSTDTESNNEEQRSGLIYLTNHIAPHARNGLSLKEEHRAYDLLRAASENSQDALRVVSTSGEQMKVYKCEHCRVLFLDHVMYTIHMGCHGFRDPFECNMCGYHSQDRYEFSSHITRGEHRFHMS
Description: as §1, §2

[13] = biological target: Aiolos (Homo sapiens, UniProt Q9UKT9); assay: Automatic Western blot (Simple Western), targeted protein degradation: Aiolos; format: cell-based; settings: 0.001-10 μM, 24 hours
Aiolos, sequence (Q9UKT9 whole entry): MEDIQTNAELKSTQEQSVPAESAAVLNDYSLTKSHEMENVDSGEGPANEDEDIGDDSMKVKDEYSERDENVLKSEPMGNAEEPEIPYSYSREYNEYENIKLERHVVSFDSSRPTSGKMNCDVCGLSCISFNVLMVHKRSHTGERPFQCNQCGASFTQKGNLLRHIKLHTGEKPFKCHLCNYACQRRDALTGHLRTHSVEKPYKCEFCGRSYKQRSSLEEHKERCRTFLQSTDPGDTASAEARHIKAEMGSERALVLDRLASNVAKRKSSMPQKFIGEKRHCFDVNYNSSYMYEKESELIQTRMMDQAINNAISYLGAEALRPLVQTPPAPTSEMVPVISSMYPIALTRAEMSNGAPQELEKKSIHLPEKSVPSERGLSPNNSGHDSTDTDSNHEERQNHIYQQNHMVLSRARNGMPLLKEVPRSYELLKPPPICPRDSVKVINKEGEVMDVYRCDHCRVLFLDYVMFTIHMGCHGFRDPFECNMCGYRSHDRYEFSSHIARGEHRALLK
Description: as §3

[14] = test system: human hematopoietic cancer cells; assay: Cancer cell proliferation assay (CellTiter-Glo), blood cancer cells; format: cell-based; settings: 3 days, concentration-dependent (FIG. 2)
Description: as §4, §5, §6

O=C(CCCCc1ccc(C(=O)NCc2ccc3c(c2)CN(C2CCC(=O)NC2=O)C3=O)cc1)NO (stereo not drawn) [Compound 4, N-((2-(2,6-dioxopiperidin-3-yl)-1-oxoisoindolin-5-yl)methyl)-4-(5-(hydroxyamino)-5-oxopentyl)benzamide]
Compound-induced c-MYC degradation after pretreatment with the proteosome inhibitor bortezomib ([1]; H929 cells, bortezomib pretreatment): prevented | c-MYC in H929 cells (targeted protein degradation / expression) ([1]; 0.001-10 μM, 24 hours): reduced c-MYC and HDAC expression | c-MYC in H929 cells (targeted protein degradation / expression) ([1]; 0.001-10 μM, 24 hours, listed as compound 4): degraded | levels of c-MYC ([1]; H929 or Jurkat cells, 0.001-10 μM, 24 hours): clearly reduced | c-MYC in Jurkat cells (targeted protein degradation) ([1]; Jurkat cells, 0.001-10 μM, 24 hours): degraded | CRBN in H929 cells (targeted protein degradation) ([2]; H929 cells): degraded | CRBN in Jurkat cells (targeted protein degradation) ([2]; Jurkat cells): degraded | HDAC2 in H929 cells (targeted protein degradation / expression) [3]: reduced c-MYC and HDAC expression; also recorded: reduced HDAC2 expression | HDAC2 in H929 cells (targeted protein degradation / expression) ([3]; listed as compound 4): degraded | levels of HDAC2 ([3]; H929 or Jurkat cells): clearly reduced | HDAC2 in Jurkat cells (targeted protein degradation) ([3]; Jurkat cells): degraded | target protein degradation [4]: caused target protein degradation | intracellular HDAC activity in human cancer cells [5]: inhibit intracellular HDAC activity; also recorded: suppressed intracellular HDAC activity | cytokine production from LPS induced PBMC [6]: suppressed cytokine production | cytokine production from SEB induced PBMC [7]: enhanced cytokine production | cytokine production from Poly (I:C) induced PBMC [8]: suppressed cytokine production | Eos in Jurkat cells (targeted protein degradation) [9]: degraded | proliferation of human solid tissue cancer cells [10]: selectively suppressed the proliferation | GAPDH in H929 cells (expression, loading control) [11]: no effect | GAPDH in H929 cells (expression, loading control) ([11]; listed as compound 4): No effect | GAPDH in Jurkat cells (expression, loading control) ([11]; Jurkat cells): No effect | Ikaros in H929 cells (targeted protein degradation) ([12]; H929 cells): degraded | levels of Ikaros ([12]; H929 or Jurkat cells): clearly reduced | Ikaros in Jurkat cells (targeted protein degradation / expression) [12]: reduced Ikaros expression | Ikaros in Jurkat cells (targeted protein degradation / expression) ([12]; listed as compound 4): degraded | Aiolos in Jurkat cells (targeted protein degradation) [13]: degraded | proliferation of human hematopoietic cancer cells [14]: selectively suppressed the proliferation
